Laboratory results published in patent US11584742B2 (MASARYKOVA UNIVERZITA, priority 2018, dated 2023).

Target: T1, MRE11 (Homo sapiens, UniProt P49959)
T1 sequence (P49959 1-708): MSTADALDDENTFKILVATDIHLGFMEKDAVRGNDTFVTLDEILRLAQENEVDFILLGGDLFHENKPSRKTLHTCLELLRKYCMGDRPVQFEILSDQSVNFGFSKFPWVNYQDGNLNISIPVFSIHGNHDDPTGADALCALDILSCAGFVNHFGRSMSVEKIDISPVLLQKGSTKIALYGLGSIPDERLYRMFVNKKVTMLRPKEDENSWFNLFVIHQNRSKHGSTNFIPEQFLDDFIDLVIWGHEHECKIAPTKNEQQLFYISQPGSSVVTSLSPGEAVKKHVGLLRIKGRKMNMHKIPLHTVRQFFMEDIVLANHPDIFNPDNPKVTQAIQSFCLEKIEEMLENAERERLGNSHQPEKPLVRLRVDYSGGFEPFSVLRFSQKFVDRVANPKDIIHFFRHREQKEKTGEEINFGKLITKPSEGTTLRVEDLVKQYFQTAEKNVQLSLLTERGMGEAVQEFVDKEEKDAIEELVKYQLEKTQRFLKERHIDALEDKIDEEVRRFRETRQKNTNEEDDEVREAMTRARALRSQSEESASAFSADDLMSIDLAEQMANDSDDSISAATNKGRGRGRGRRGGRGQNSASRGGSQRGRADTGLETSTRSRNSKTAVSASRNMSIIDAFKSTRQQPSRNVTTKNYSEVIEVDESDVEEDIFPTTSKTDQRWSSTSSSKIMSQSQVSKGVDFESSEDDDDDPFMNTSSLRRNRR
Assay: HTS nuclease assay (cleavage of CY5/BBQ-quenched 5' overhang DNA substrate)
Type: biochemical
Conditions: in vitro HTS nuclease assay; 18 nM MRE11, 40 nM DNA substrate; analysis at t=4 h
Description: DNA Substrate Preparation
The DNA substrate is prepared by mixing the oligonucleotides listed below in a 1:1 ratio to reach a final concentration of 6 μM in a buffer containing 50 mM Tris pH 7.5, 100 mM NaCl and 8 mM MgCl2.
This substrate is a 5′ overhang, which is a preferred substrate of MRE11. […] The fluorescence increases upon substrate cleavage by MRE11, when separation of the two labels occur.
The conditions of the assay are as follows:
Total reaction volume: 5 μL
DNA substrate concentration in the reaction: 40 nM
Inhibitor concentration range tested: 7 nM-50 μM
Each plate contains a series of high and low signal control wells, where no compound is added:
High signal: MRE11+DNA substrate
Low signal: DNA substrate only
These are used during data evaluation.
Two extra assay controls:
1) To check whether unwinding of DNA by the compounds alone occurs.
The DNA substrate [CY5+BBQ(650)] is mixed with the compounds with no protein present.
The CY5 single stranded oligo is mixed with the compounds with no protein present.
The layout of the plates is created by the in-house software (CZ-Openscreen Prague) and this information is transferred to the robotic HTS station.
The reaction is started by the addition of DNA and the reaction time is counted from that moment, including a 15 min delay. Ten timepoints are measured:
The assay data analysis was performed at t=4 h. This corresponds to the time when the reaction is close to its maximum.
The data analysis was performed using the in-house software to obtain IC50 for each compound.

SMILES | IC50
CC(C)(C)c1ccc(-c2csc(NC(=O)/C(C#N)=C/c3cc(Cl)c(O)c(Cl)c3)n2)cc1 [Preparative Example 224, (E)-N-(4-(4-(tert-butyl)phenyl)thiazol-2-yl)-2-cyano-3-(3,5-dichloro-4-hydroxyphenyl)acrylamide] | 2 to 10 µM
N#C/C(=C\c1cc(Br)c(O)c(Br)c1)C(=O)Nc1nc(-c2ncc(N3CCOCC3)cc2F)cs1 [Preparative Example 271, (E)-2-cyano-3-(3,5-dibromo-4-hydroxyphenyl)-N-(4-(3-fluoro-5-morpholinopyridin-2-yl)thiazol-2-yl)acrylamide] | < 2 µM
N#C/C(=C\c1ccc(O)c(O)c1)C(=O)Nc1nc(-c2ccccn2)c(-c2cnccn2)s1 [Preparative Example 263, (E)-2-cyano-3-(3,4-dihydroxyphenyl)-N-(5-(pyrazin-2-yl)-4-(pyridin-2-yl)thiazol-2-yl)acrylamide] | < 2 µM
N#C/C(=C\c1cc(Br)c(O)c(Br)c1)C(=O)Nc1nc(Cc2ccccc2)cs1 [Preparative Example 276, (E)-N-(4-benzylthiazol-2-yl)-2-cyano-3-(3,5-dibromo-4-hydroxyphenyl)acrylamide] | 2 to 10 µM
N#C/C(=C\c1ccc(O)c(CO)c1)C(=O)Nc1nc(-c2ccccc2)cs1 [Preparative Example 260, (E)-2-cyano-3-(4-hydroxy-3-(hydroxymethyl)phenyl)-N-(4-phenylthiazol-2-yl)acrylamide] | 2 to 10 µM
N#C/C(=C\c1cc(O)c(O)c(F)c1)C(=O)Nc1nc(-c2ccccc2)cs1 [Preparative Example 267, (E)-2-cyano-3-(3-fluoro-4,5-dihydroxyphenyl)-N-(4-phenylthiazol-2-yl)acrylamide] | < 2 µM
COc1cc(/C=C(\C#N)C(=O)Nc2nc(-c3ccccc3)cs2)cc(C#N)c1O [Preparative Example 268, (E)-2-cyano-3-(3-cyano-4-hydroxy-5-methoxyphenyl)-N-(4-phenylthiazol-2-yl)acrylamide] | 10 to 90 µM
N#C/C(=C\c1cc(Cl)c(O)c(Cl)c1)C(=O)Nc1nc(-c2ncccc2F)cs1 [Preparative Example 252, (E)-2-cyano-3-(3,5-dichloro-4-hydroxyphenyl)-N-(4-(3-fluoropyridin-2-yl)thiazol-2-yl)acrylamide] | < 2 µM
N#C/C(=C\c1ccc(O)cc1Br)C(=O)Nc1nc(-c2ccccc2)cs1 [Preparative Example 256, (E)-3-(2-bromo-4-hydroxyphenyl)-2-cyano-N-(4-phenylthiazol-2-yl)acrylamide] | 10 to 90 µM
N#C/C(=C\c1cc(Br)c(O)c(Br)c1)C(=O)Nc1nc(-c2ccccn2)cs1 [Preparative Example 249, (E)-2-cyano-3-(3,5-dibromo-4-hydroxyphenyl)-N-(4-(pyridin-2-yl)thiazol-2-yl)acrylamide] | < 2 µM
N#C/C(=C\c1ccc(O)c(Br)c1)C(=O)Nc1nc(-c2ccccc2)cs1 [Preparative Example 202, (E)-3-(3-bromo-4-hydroxyphenyl)-2-cyano-N-(4-phenylthiazol-2-yl)acrylamide] | 2 to 10 µM
N#C/C(=C\c1ccc(O)c(O)c1)C(=O)Nc1ncc(-c2cnccn2)s1 [Preparative Example 262, (E)-2-cyano-3-(3,4-dihydroxyphenyl)-N-(5-(pyrazin-2-yl)thiazol-2-yl)acrylamide] | 10 to 90 µM
N#C/C(=C\c1ccc(O)c(O)c1)C(=O)Nc1nc(-c2ccc(N3CCOCC3)nc2)cs1 [Preparative Example 265, (E)-2-cyano-3-(3,4-dihydroxyphenyl)-N-(4-(6-morpholinopyridin-3-yl)thiazol-2-yl)acrylamide] | 2 to 10 µM
N#C/C(=C\c1ccc(O)c(O)c1)C(=O)Nc1nc(C(=O)c2ccccc2)cs1 [Preparative Example 261, (E)-N-(4-benzoylthiazol-2-yl)-2-cyano-3-(3,4-dihydroxyphenyl)acrylamide] | < 2 µM
N#C/C(=C\c1ccc(C(=O)O)c(O)c1)C(=O)Nc1nc(-c2ccccc2)cs1 [Preparative Example 259, (E)-4-(2-cyano-3-oxo-3-((4-phenylthiazol-2-yl)amino)prop-1-en-1-yl)-2-hydroxybenzoic acid] | 2 to 10 µM
N#C/C(=C\c1cc(O)c(O)c(Br)c1)C(=O)Nc1nc(-c2ncc(N3CCOCC3)cc2F)cs1 [Preparative Example 272, (E)-3-(3-bromo-4,5-dihydroxyphenyl)-2-cyano-N-(4-(3-fluoro-5-morpholinopyridin-2-yl)thiazol-2-yl)acrylamide] | < 2 µM
Cc1cc(/C=C(\C#N)C(=O)Nc2nc(-c3ncccc3F)cs2)cc(C)c1O [Preparative Example 250, (E)-2-cyano-N-(4-(3-fluoropyridin-2-yl)thiazol-2-yl)-3-(4-hydroxy-3,5-dimethylphenyl)acrylamide] | 10 to 90 µM
N#C/C(=C\c1ccc(O)c(C(=O)O)c1)C(=O)Nc1nc(-c2ccccc2)cs1 [Preparative Example 254, (E)-5-(2-cyano-3-oxo-3-((4-phenylthiazol-2-yl)amino)prop-1-en-1-yl)-2-hydroxybenzoic acid] | 10 to 90 µM
N#C/C(=C\c1cc(Cl)c(O)c(Cl)c1)C(=O)Nc1nc(Cc2ccccc2)cs1 [Preparative Example 275, (E)-N-(4-benzylthiazol-2-yl)-2-cyano-3-(3,5-dichloro-4-hydroxyphenyl)acrylamide] | 10 to 90 µM
N#C/C(=C\c1cc(Br)c(O)c(Br)c1)C(=O)Nc1nc(-c2ncccc2F)cs1 [Preparative Example 251, (E)-2-cyano-3-(3,5-dibromo-4-hydroxyphenyl)-N-(4-(3-fluoropyridin-2-yl)thiazol-2-yl)acrylamide] | < 2 µM
N#C/C(=C\c1ccc(O)c(O)c1)C(=O)Nc1nc(-c2ncc(N3CCOCC3)cc2F)cs1 [Preparative Example 270, (E)-2-cyano-3-(3,4-dihydroxyphenyl)-N-(4-(3-fluoro-5-morpholinopyridin-2-yl)thiazol-2-yl)acrylamide] | < 2 µM
COC(=O)c1ccc(/C=C(\C#N)C(=O)Nc2nc(-c3ccccc3)cs2)cc1O [Preparative Example 258, Methyl (E)-4-(2-cyano-3-oxo-3-((4-phenylthiazol-2-yl)amino)prop-1-en-1-yl)-2-hydroxybenzoate] | 2 to 10 µM
N#C/C(=C\c1ccc(O)c(O)c1)C(=O)Nc1nc(Cc2ccccc2)cs1 [Preparative Example 273, (E)-N-(4-benzylthiazol-2-yl)-2-cyano-3-(3,4-dihydroxyphenyl)acrylamide] | < 2 µM
N#C/C(=C\c1ccc(O)c(C(N)=O)c1)C(=O)Nc1nc(-c2ccccc2)cs1 [Preparative Example 255, (E)-5-(2-cyano-3-oxo-3-((4-phenylthiazol-2-yl)amino)prop-1-en-1-yl)-2-hydroxybenzamide] | 10 to 90 µM
N#C/C(=C\c1cc(O)c(O)c(C#N)c1)C(=O)Nc1nc(-c2ccccc2)cs1 [Preparative Example 269, (E)-2-cyano-3-(3-cyano-4,5-dihydroxyphenyl)-N-(4-phenylthiazol-2-yl)acrylamide] | < 2 µM
N#C/C(=C\c1cc(O)c(O)c(Br)c1)C(=O)Nc1nc(-c2ccccc2)cs1 [Preparative Example 266, (E)-3-(3-bromo-4,5-dihydroxyphenyl)-2-cyano-N-(4-phenylthiazol-2-yl)acrylamide] | < 2 µM
